{
  "source": "patent US9623000B2",
  "about": "“Compositions and methods for treating inflammatory disorders” (priority 2008, dated 2017)",
  "assay_type_in_all_cases": "in vivo, Mice/Balb/c",
  "key": {"[1]": {"tested_on": "croton oil induced ear edema", "test": "Croton oil induced ear swelling, 3 hours post sensitization (Example 1)", "conditions": "Hydrocortisone 600 nmol/ear; for ear swelling (difference between the inflamed and intact ear thickness) / % of Ear Thickness Inhibition (inhibition of ear swelling/edema vs Vehicle): 3 hours post croton oil; for ear swelling (difference between the inflamed and intact ear thickness) / Mean Group Ear Swelling (mm) 3 Hours Post Croton Oil MEAN: PEA, CBD 5 mg/ml; for ear swelling (difference between the inflamed and intact ear thickness): MEAN±SEM; for % of Ear Thickness Inhibition (inhibition of ear swelling/edema vs Vehicle) / Mean Group Ear Swelling (mm) 3 Hours Post Croton Oil MEAN: topical 1 hour prior to and 2 hours post sensitization; for % of Ear Thickness Inhibition (inhibition of ear swelling/edema vs Vehicle): 2 mg/ml or 5 mg/ml (PEA, CBD); for Mean Group Ear Swelling (mm) 3 Hours Post Croton Oil MEAN: Amitriptyline, Topiramate, Moclobimide 2 mg/ml", "method": "A study was undertaken in order to evaluate the effect of topical preparations of various test items (TI) and TI combined with Croton oil on ear swelling. Ear thickness was measured before croton oil induced ear swelling and 3 hours post ear edema induction. The various TIs were applied topically 1 hour prior to ear edema sensitization and 2 hours post ear edema sensitization. The difference in ear thickness of the intact ear was subtracted from the ear thickness of the inflamed ear. This value is defined as “ear swelling”.\nSpecies/Strain: Mice/Balb/c\nPrior to sensitization animals were anesthetized. Ear thickness was measured 24 hours prior to croton oil sensitization; this measurement served as a baseline. On sensitization day, the animals were anesthetized using Ketamine and Xylazine formulation. Then, the animals were administered with TI topically. One hour later the animals were introduced to croton oil sensitization (50 μL). Two hours post croton oil sensitization the animals were administered with TI again. Three hours post croton oil sensitization the ear thickness of the animals were measured again.\nTIs were administered twice, the first dose was 1 hour prior to croton oil sensitization and the second time was 2 hours post croton oil sensitization. All TIs were dissolved in 10% Ethanol and were applied topically on the surface of the sensitized ear.\nDetermination of individual body weights of animals was made one day before sensitization phase. A single person was responsible for ear thickness measurement throughout the entire study. The ear thickness of both left and right ears was measured using analogue calipers (Instrumentation 0.01 mm L-01) on 2 occasions: 24 hours prior to croton oil sensitization, and 3 hours post croton oil sensitization.\nAll data are presented in MEAN±SEM. T-test, two tailed, unpaired was applied to all data. P value was considered significant if p<0.05.\nEar thickness was measured before Croton oil induced ear sensitization (baseline) and 3 hours post ear edema induction. Treatment with various TI was applied topically 1 hour prior to sensitization and 2 hours post induction. The difference in ear thickness of the intact ear was subtracted from the ear thickness measured of the inflamed ear. This value was referred to as ear swelling."}, "[2]": {"tested_on": "croton oil induced ear edema", "test": "Croton oil induced ear edema, 6 hours post sensitization (Example 2)", "from_the_text": "A study was undertaken in order to evaluate the effect of topical preparations of Hydrocortisone, Betamethasone and PEA at various concentrations (as single agents and in various combinations) on ear edema in mice. […] The difference in ear thickness of the intact ear was subtracted from the ear thickness of the inflamed ear. This value is defined as “ear swelling”."}, "[3]": {"tested_on": "croton oil induced ear edema", "test": "Croton oil induced ear edema, 6 and 9 hours post sensitization (Example 3)", "conditions": "PEA 1%; for activity in inhibiting ear swelling vs. Vehicle: Betamethasone 4 μg/25 μl per ear; for Mean Left Ear Delta Thickness, Delta + 9 h vs baseline / Mean Left Ear Delta thickness, Delta + 6 h vs baseline / Mean Left Ear Thickness (mm) Day 0 (6 h post sensitization) / Mean Left Ear Thickness (mm) Day 0 (9 h post sensitization): Betamethasone EDmax 4 μg/25 μl per ear; for Mean Left Ear Thickness (mm) Day 0 (6 h post sensitization) / Mean Left Ear Thickness (mm) Day 0 (9 h post sensitization): topical 25 μl per ear prior to sensitization", "method": "A study was undertaken in order to determine the effect of topical application of a combined preparation of Betamethasone and PEA on ear edema in mice. Ear thickness was measured before croton oil induced ear swelling and 6 and 9 hours post ear edema induction. […]\nThe difference in ear thickness of the intact ear was subtracted from the ear thickness of the inflamed ear. This value is defined as “ear swelling”."}, "[4]": {"conditions": "steroid alone at ED50: Hydrocortisone 55 μg/25 μl per ear, Betamethasone 1 μg/25 μl per ear"}, "[5]": {"conditions": "steroid alone at EDmax: Hydrocortisone 200 μg/25 μl per ear, Betamethasone 4 μg/25 μl per ear"}, "[6]": {"conditions": "topical, steroid alone at calculated ED50: Hydrocortisone 55 μg/25 μl per ear, Betamethasone 1 μg/25 μl per ear"}, "[7]": {"conditions": "topical, steroid alone at calculated EDmax: Hydrocortisone 200 μg/25 μl per ear, Betamethasone 4 μg/25 μl per ear"}},
  "note": "Several values for one entry are separate records, joined by “and”; a condition that tells them apart may be missing. Equal entries are not always repeated. Marks after values point to notes of the source that are not given here.",
  "data": [
    {"smiles": "C[C@]12CCC(=O)C=C1CC[C@@H]1[C@@H]2[C@@H](O)C[C@@]2(C)[C@H]1CC[C@]2(O)C(=O)CO", "note": "[Hydrocortisone, hydrocortisone]", "values": [
      {"measurement": "ear swelling (difference between the inflamed and intact ear thickness)", "setting": "[1]", "result": "0.043±0.003", "unit": "mm"},
      {"measurement": "% of Ear Thickness Inhibition (inhibition of ear swelling/edema vs Vehicle)", "setting": "[1]", "result": 40, "unit": "%"},
      {"measurement": "Mean Group Ear Swelling (mm) 3 Hours Post Croton Oil MEAN", "setting": "[1]", "result": 0.243, "unit": "mm"},
      {"measurement": "activity compared to vehicle in reducing ear thickness / ear edema", "setting": "[2]; 6 hours post sensitization, Hydrocortisone 55 and 200 μg/25 μl per ear, Betamethasone 1 and 4 μg/25 μl per ear (calculated ED50 and EDmax)", "result": "not active"},
      {"measurement": "Mean Left Ear Delta thickness, Delta + 6 h vs baseline", "setting": "[2]; [4]", "result": 0.060},
      {"measurement": "Mean Left Ear Delta thickness, Delta + 6 h vs baseline", "setting": "[2]; [5]", "result": 0.054},
      {"measurement": "Left Ear Thickness (mm) Study Day 0 (6 H post sensitization)", "setting": "[2]; [6]", "result": 0.32, "unit": "mm"},
      {"measurement": "Left Ear Thickness (mm) Study Day 0 (6 H post sensitization)", "setting": "[2]; [7]", "result": 0.31, "unit": "mm"}
    ]},
    {"smiles": "O=C(NCCN1CCOCC1)c1ccc(Cl)cc1", "note": "[Moclobimide, moclobemide]", "values": [
      {"measurement": "% of Ear Thickness Inhibition (inhibition of ear swelling/edema vs Vehicle)", "setting": "[1]", "result": 52, "unit": "%"},
      {"measurement": "Mean Group Ear Swelling (mm) 3 Hours Post Croton Oil MEAN", "setting": "[1]", "result": 0.265, "unit": "mm"}
    ]},
    {"smiles": "C[C@H]1C[C@H]2[C@@H]3CCC4=CC(=O)C=C[C@]4(C)[C@@]3(F)[C@@H](O)C[C@]2(C)[C@@]1(O)C(=O)CO", "note": "[Betamethasone, betamethasone]", "values": [
      {"measurement": "Mean Left Ear Delta thickness, Delta + 6 h vs baseline", "setting": "[2]; [4]", "result": 0.043},
      {"measurement": "Mean Left Ear Delta thickness, Delta + 6 h vs baseline", "setting": "[2]; [5]", "result": "0.031*"},
      {"measurement": "Left Ear Thickness (mm) Study Day 0 (6 H post sensitization)", "setting": "[2]; [6]", "result": "0.30±0.008", "unit": "mm"},
      {"measurement": "Left Ear Thickness (mm) Study Day 0 (6 H post sensitization)", "setting": "[2]; topical, steroid alone at calculated ED50: Hydrocortisone 55 μg/25 μl per ear, Betamethasone 1 μg/25 μl per ear, listed as Beta.", "result": "0.30 * mm"},
      {"measurement": "Left Ear Thickness (mm) Study Day 0 (6 H post sensitization)", "setting": "[2]; [7]", "result": "0.29±0.005", "unit": "mm"},
      {"measurement": "Left Ear Thickness (mm) Study Day 0 (6 H post sensitization)", "setting": "[2]; topical, steroid alone at calculated EDmax: Hydrocortisone 200 μg/25 μl per ear, Betamethasone 4 μg/25 μl per ear, listed as Beta", "result": "0.29 ** mm"},
      {"measurement": "activity in inhibiting ear swelling vs. Vehicle", "setting": "[3]; 6 hours post sensitization", "result": "active"},
      {"measurement": "activity in inhibiting ear swelling vs. Vehicle", "setting": "[3]; 9 hours post sensitization", "result": "not active"},
      {"measurement": "Mean Left Ear Delta Thickness, Delta + 9 h vs baseline", "setting": "[3]", "result": "0.092#"},
      {"measurement": "Mean Left Ear Delta thickness, Delta + 6 h vs baseline", "setting": "[3]", "result": "0.036**"},
      {"measurement": "Mean Left Ear Thickness (mm) Day 0 (6 h post sensitization)", "setting": "[3]", "result": "0.27*** mm"},
      {"measurement": "Mean Left Ear Thickness (mm) Day 0 (9 h post sensitization)", "setting": "[3]", "result": 0.33, "unit": "mm"}
    ]},
    {"smiles": "CC1(C)O[C@@H]2[C@@H](CO[C@@]3(COS(N)(=O)=O)OC(C)(C)O[C@@H]23)O1", "note": "[Topiramate, topiramate]", "values": [
      {"measurement": "% of Ear Thickness Inhibition (inhibition of ear swelling/edema vs Vehicle)", "setting": "[1]", "result": 63, "unit": "%"},
      {"measurement": "Mean Group Ear Swelling (mm) 3 Hours Post Croton Oil MEAN", "setting": "[1]", "result": 0.243, "unit": "mm"}
    ]},
    {"smiles": "C=C(C)[C@@H]1CCC(C)=C[C@H]1c1c(O)cc(CCCCC)cc1O", "note": "[CBD, cannabidiol]", "values": [
      {"measurement": "ear swelling (difference between the inflamed and intact ear thickness)", "setting": "[1]", "result": "0.020±0.010", "unit": "mm"},
      {"measurement": "% of Ear Thickness Inhibition (inhibition of ear swelling/edema vs Vehicle)", "setting": "[1]", "result": 72, "unit": "%"},
      {"measurement": "Mean Group Ear Swelling (mm) 3 Hours Post Croton Oil MEAN", "setting": "[1]", "result": "0.240* mm"}
    ]},
    {"smiles": "CCCCCCCCCCCCCCCC(=O)NCCO", "note": "[PEA, N-(2-hydroxyethyl)hexadecanamide]", "values": [
      {"measurement": "ear swelling (difference between the inflamed and intact ear thickness)", "setting": "[1]", "result": "0.035±0.012", "unit": "mm"},
      {"measurement": "% of Ear Thickness Inhibition (inhibition of ear swelling/edema vs Vehicle)", "setting": "[1]", "result": 52, "unit": "%"},
      {"measurement": "Mean Group Ear Swelling (mm) 3 Hours Post Croton Oil MEAN", "setting": "[1]", "result": 0.268, "unit": "mm"},
      {"measurement": "Mean Left Ear Delta thickness, Delta + 6 h vs baseline", "setting": "[2]; PEA 0.5% (alone or + Hydrocortisone/Betamethasone ED50)", "result": 0.135},
      {"measurement": "Mean Left Ear Delta thickness, Delta + 6 h vs baseline", "setting": "[2]; PEA 1% (alone or + Hydrocortisone/Betamethasone ED50)", "result": "0.031*"},
      {"measurement": "reducing ear thickness vs. Vehicle", "setting": "[2]; PEA 1% topical, 6 hours post sensitization", "result": "approximately 50%"},
      {"measurement": "Mean Left Ear Delta thickness, Delta + 6 h vs baseline", "setting": "[2]; PEA 5% (alone or + Hydrocortisone/Betamethasone ED50)", "result": 0.062},
      {"measurement": "Left Ear Thickness (mm) Study Day 0 (6 H post sensitization)", "setting": "[2]; topical 25 μl per ear 0.5 hour prior to sensitization, PEA 0.5% (alone or + Hydrocortisone 55 μg/25 μl or Betamethasone 1 μg/25 μl, ED50)", "result": 0.38, "unit": "mm"},
      {"measurement": "Left Ear Thickness (mm) Study Day 0 (6 H post sensitization)", "setting": "[2]; topical 25 μl per ear 0.5 hour prior to sensitization, PEA 1% (alone or + Hydrocortisone 55 μg/25 μl or Betamethasone 1 μg/25 μl, ED50)", "result": "0.29±0.004 mm and 0.29 ** mm"},
      {"measurement": "Left Ear Thickness (mm) Study Day 0 (6 H post sensitization)", "setting": "[2]; topical 25 μl per ear 0.5 hour prior to sensitization, PEA 5% (alone or + Hydrocortisone 55 μg/25 μl or Betamethasone 1 μg/25 μl, ED50)", "result": 0.32, "unit": "mm"},
      {"measurement": "activity in inhibiting ear swelling vs. Vehicle", "setting": "[3]; 6 hours post sensitization", "result": "significant activity"},
      {"measurement": "activity in inhibiting ear swelling vs. Vehicle", "setting": "[3]; 9 hours post sensitization", "result": "not active"},
      {"measurement": "Mean Left Ear Delta Thickness, Delta + 9 h vs baseline", "setting": "[3]", "result": 0.147},
      {"measurement": "Mean Left Ear Delta thickness, Delta + 6 h vs baseline", "setting": "[3]", "result": "0.056*"},
      {"measurement": "Mean Left Ear Thickness (mm) Day 0 (6 h post sensitization)", "setting": "[3]", "result": "0.30** mm"},
      {"measurement": "Mean Left Ear Thickness (mm) Day 0 (9 h post sensitization)", "setting": "[3]", "result": 0.39, "unit": "mm"}
    ]},
    {"smiles": "CN(C)CCC=C1c2ccccc2CCc2ccccc21", "note": "[Amitriptyline, amitriptyline]", "values": [
      {"measurement": "% of Ear Thickness Inhibition (inhibition of ear swelling/edema vs Vehicle)", "setting": "[1]", "result": 62, "unit": "%"},
      {"measurement": "Mean Group Ear Swelling (mm) 3 Hours Post Croton Oil MEAN", "setting": "[1]", "result": "0.248* mm"}
    ]}
  ]
}
